Non-standard residues stand in square brackets, D forms with d. Residues, ends and D or L forms follow the SMILES beside them. *: point of attachment. 1Nal = N[C@@H](Cc1cccc2ccccc12)C(=O)O; 2Nal = N[C@@H](Cc1ccc2ccccc2c1)C(=O)O; d2Nal = N[C@H](Cc1ccc2ccccc2c1)C(=O)O; Phe(ol) = N[C@H](CO)Cc1ccccc1; Boc = CC(C)(C)OC(=O)*; For = O=C*
What was measured:
Format in all cases: cell-based
[1] = molecular target: T1, cholecystokinin receptors (Cavia porcellus, UniProt Q63931); test: CCK-antagonist activity in isolated guinea-pig gall-bladder strip preparations; details: guinea-pig gall-bladder strips; CCK-8 as agonist; test compound incubated for 60 minutes; standard errors less than 5%
T1 construct: Isolated, strip preparations were prepared from gall-bladders removed from male Dunkin-Hartley guinea-pigs; from tissue; host or cells: guinea-pig gall-bladder strips
T1 sequence (Q63931 1-430): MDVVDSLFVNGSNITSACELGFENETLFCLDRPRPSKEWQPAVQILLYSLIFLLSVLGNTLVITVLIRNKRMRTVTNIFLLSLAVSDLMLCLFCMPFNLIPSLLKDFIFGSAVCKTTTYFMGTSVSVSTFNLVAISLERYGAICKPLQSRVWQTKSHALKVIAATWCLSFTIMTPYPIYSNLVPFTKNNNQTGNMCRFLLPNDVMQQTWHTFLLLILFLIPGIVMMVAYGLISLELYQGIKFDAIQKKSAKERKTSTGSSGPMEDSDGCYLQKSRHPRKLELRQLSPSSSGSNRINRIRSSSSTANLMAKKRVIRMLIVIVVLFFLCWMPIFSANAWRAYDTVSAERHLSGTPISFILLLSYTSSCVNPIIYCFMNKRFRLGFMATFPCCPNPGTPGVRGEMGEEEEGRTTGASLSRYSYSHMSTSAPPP
Experimental: The compounds of the invention were also assayed for CCK-antagonist activity as follows:
Isolated, strip preparations were prepared from gall-bladders removed from male Dunkin-Hartley guinea-pigs (250-500 g body weight) according to the method of La Morte, W. W., et al., J.P.E.T., 217, (3), 638-644 (1981).
The complete gall-bladder is removed and opened along the longitudinal axis. Strips measuring 3 mm in the longitudinal axis and 1 mm in the transverse axis are cut and then tied with cotton to stainless steel wires. The preparation is connected to a GRASS FTO3 isometric transducer under an initial loading tension of 1 g and is immersed in 20 mls of Krebs solution maintained at 37° C. and gassed with 95% O2 /5% CO2. The Krebs solution is as detailed above in connection with the fundus assay, except that the Ca^2+ concentration is decreased to 0.5 mM. After 30 mins the preparation is washed. Drug addition begins after an initial 90 min stabilisation period. Responses are measured as changes in tension from that immediately prior to any drug addition. Single cumulative agonist concentration-effect curves, using CCK-8 as agonist, are obtained on each preparation in the absence and presence of test compound which has been incubated for 60 minutes. The antagonist activity of the test compound is estimated and expressed as the negative logarithm (base 10) of the equilibrium dissociation constants (pK8) using the modifications of standard competitive analysis described by Black et al., Br. J. Pharmacol.,86,571-579, (1985) and Shankley et al., Br. J. Pharmacol.,94,264-274 (1988).

[2] = molecular target: T2, gastrin receptor (Cavia porcellus, UniProt H0VZC5); test: guinea-pig fundus assay for gastrin activity (stomach muscle strips); details: 10^-8 M devazepide present, 60 minute equilibration, agonist e.g. pentagastrin, standard errors less than 5%
T2 construct: Strips of muscle (approximately 2.5 cm by 1 cm) are removed from the proximal area of the stomach; from tissue; host or cells: guinea-pig proximal stomach (fundus) muscle strips
T2 sequence (H0VZC5 1-426): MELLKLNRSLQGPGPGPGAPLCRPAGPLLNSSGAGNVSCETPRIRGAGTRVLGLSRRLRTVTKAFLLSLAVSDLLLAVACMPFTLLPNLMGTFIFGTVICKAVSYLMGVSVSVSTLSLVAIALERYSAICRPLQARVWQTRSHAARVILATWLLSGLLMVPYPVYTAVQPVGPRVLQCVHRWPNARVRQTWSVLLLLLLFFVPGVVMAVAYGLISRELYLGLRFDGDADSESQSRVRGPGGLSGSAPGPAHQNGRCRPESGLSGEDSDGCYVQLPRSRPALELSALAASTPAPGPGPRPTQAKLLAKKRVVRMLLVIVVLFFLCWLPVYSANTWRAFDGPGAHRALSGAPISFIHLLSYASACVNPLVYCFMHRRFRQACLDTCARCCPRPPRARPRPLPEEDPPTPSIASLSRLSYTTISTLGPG
Experimental: The compounds were assayed for gastrin activity using the mouse stomach assay as described by Black, J. W. and Shankley, N. P., Br. J. Pharmacol., 86, 571-579, (1985), and also in the guinea-pig fundus assay, as follows:
The stomach is removed from a male Dunkin-Hartley guinea-pig (250-500 g), and Krebs solution is injected through a hypodermic needle under the top stomach muscle layer. The composition (mM) of the Krebs solution is as follows: Na^+ 143, K^+ 5.9, Ca^2+ 2.5, Mg^2+ 1.2, Cl^- 128, H2 PO4^- 2.2, HCO3^- 24.9, SO4^2- 1.2, dextrose 10. Strips of muscle (approximately 2.5 cm by 1 cm) are removed from the proximal area of the stomach (one from each side) and tied with cotton thread to isotonic transducers under an initial loading tension of 0.35 g.
The preparation is immersed in 20 mls of Krebs solution containing 10^-8 M devazepide (25 μl 2×10^-3 M devazepide/100% DMF solution in 5 dm^3 Krebs) and gassed with 95% O2 /5% CO2. The function of the devazepide is to block possible effects at CCK receptors present in the tissue.
The preparation is washed twice over a 60 minute period then 10 mM KCl is added. At 90 minutes, test compounds (ie. potential antagonists) are added and a further 60 minute equilibration period allowed. After this time, cumulative agonist (e.g. pentagastrin) dose-response curves are constructed.

[3] = molecular target: T3, gastrin receptor (Mus musculus, UniProt P56481); test: mouse stomach assay for gastrin activity (isolated stomach, acid secretion); details: for pKB mouse stomach: isolated mouse stomach assay, gastrin antagonism, standard errors less than 5%; for Acid seretion at 10^-5 M test compound, relative to pentagastrin (%): mouse stomach, NS = not significant
T3 construct: assayed for gastrin activity using the mouse stomach assay; from tissue; host or cells: isolated mouse stomach
T3 sequence (P56481 1-453): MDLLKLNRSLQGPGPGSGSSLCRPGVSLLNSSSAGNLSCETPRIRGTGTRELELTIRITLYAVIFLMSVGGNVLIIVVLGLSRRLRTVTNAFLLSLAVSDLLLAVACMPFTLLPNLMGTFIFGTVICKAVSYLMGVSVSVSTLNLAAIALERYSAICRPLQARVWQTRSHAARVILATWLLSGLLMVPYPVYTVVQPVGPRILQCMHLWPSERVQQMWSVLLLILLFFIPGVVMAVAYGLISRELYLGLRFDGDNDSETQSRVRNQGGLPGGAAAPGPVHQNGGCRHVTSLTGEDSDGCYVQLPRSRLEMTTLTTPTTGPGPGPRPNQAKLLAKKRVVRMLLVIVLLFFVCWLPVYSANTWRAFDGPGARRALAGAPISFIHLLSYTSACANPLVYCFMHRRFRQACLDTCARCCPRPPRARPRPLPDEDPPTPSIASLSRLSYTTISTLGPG
Experimental: The compounds were assayed for gastrin activity using the mouse stomach assay as described by Black, J. W. and Shankley, N. P., Br. J. Pharmacol., 86, 571-579, (1985), and also in the guinea-pig fundus assay, as follows: […]

Row | Compound | pKB [1] | pKB [2] | Kb [2] | other results
1 | CC(C)(C)OC(=O)N[C@@H](Cc1c[nH]c2ccccc12)C(=O)N[C@@H](Cc1ccc2ccccc2c1)C(=O)N[C@@H](CC(=O)O)C(=O)N[C@@H]1CCC[C@H]1c1ccccc1 (single isomer, unassigned; diastereomer 2) [Example 32, N-t-Butyloxycarbonyl-L-tryptophyl-L-3-(2-naphthyl)alanyl-L-aspartyl-trans-2-phenylcyclopentylamide (diastereomer 2)] | 6.6 | 6.1 |  | 
2 | CC(C)(C)OC(=O)N[C@@H](Cc1c[nH]c2ccccc12)C(=O)N[C@H](Cc1ccc2ccccc2c1)C(=O)N[C@@H](CC(=O)O)C(=O)N[C@@H](Cc1ccccc1)C(N)=O [Example 3, N-t-Butyloxycarbonyl-L-tryptophyl-D-3-(2-naphthyl)alanyl-L-aspartyl-L-phenylalaninamide] (Boc-W[d2Nal]DF-NH2) |  |  | 2.51 µM | 
3 | CC(C)(C)OC(=O)N[C@@H](Cc1c[nH]c2ccccc12)C(=O)N[C@@H](Cc1cccc2ccccc12)C(=O)N[C@@H](CC(=O)O)C(=O)N[C@@H](Cc1ccccc1)C(N)=O [Example 4, N-t-Butyloxycarbonyl-L-tryptophyl-L-3-(1-naphthyl)alanyl-L-aspartyl-L-phenylalaninamide] (Boc-W[1Nal]DF-NH2) |  |  | 1.58 µM | 
4 | CC(C)(C)OC(=O)N[C@@H](Cc1c[nH]c2ccccc12)C(=O)N[C@@H](Cc1ccc2ccccc2c1)C(=O)N[C@@H](CC(=O)O)C(=O)N[C@H](CO)Cc1ccccc1 [Example 9, N-t-Butyloxycarbonyl-L-tryptophyl-L-3-(2-naphthyl)alanyl-L-aspartyl-L-phenylalaninol] (Boc-W[2Nal]D[Phe(ol)]) |  |  | 2.51 µM | Kb [1]: 1.26 µM
5 | CC(C)(C)OC(=O)N[C@@H](Cc1c[nH]c2ccccc12)C(=O)N[C@@H](Cc1ccc2ccccc2c1)C(=O)N[C@H](CC(=O)O)C(=O)N[C@@H](Cc1ccccc1)C(N)=O [Example 12, N-t-Butyloxycarbonyl-L-tryptophyl-L-3-(2-naphthyl)alanyl-D-aspartyl-L-phenylalaninamide] (Boc-W[2Nal][dD]F-NH2) |  |  | 3.16 µM | Kb [1]: 0.0398 µM
6 | NC(=O)[C@H](Cc1ccccc1)NC(=O)[C@H](CC(=O)O)NC(=O)[C@H](Cc1ccc2ccccc2c1)NC(=O)[C@H](Cc1c[nH]c2ccccc12)NC=O [Example 15, N-Formyl-L-tryptophyl-L-3-(2-naphthyl)alanyl-L-aspartyl-L-phenylalaninamide] (For-W[2Nal]DF-NH2) |  |  | 5.01 µM | Kb [1]: 0.631 µM
7 | CC(C)(C)OC(=O)N[C@@H](Cc1c[nH]c2ccccc12)C(=O)N[C@@H](Cc1ccc2ccccc2c1)C(=O)N[C@@H](CC(=O)O)C(=O)N1CCc2ccccc2C1 [Example 26, N-[N-t-Butyloxycarbonyl-L-tryptophyl-L-3-(2-naphthyl)alanyl-L-aspartyl]-1,2,3,4-tetrahydroisoquinolinamide] | 6.6 | 5.5 |  | 
8 | CCCCOC(=O)N[C@@H](Cc1c[nH]c2ccccc12)C(=O)N[C@@H](Cc1ccc2ccccc2c1)C(=O)N[C@@H](CC(=O)O)C(=O)NCCc1ccccc1C(F)(F)F [Example 27, N-Butyloxycarbonyl-L-tryptophyl-L-3-(2-naphthyl)alanyl-L-aspartyl-2-trifluoromethylphenethylamide] | 6.5 | 5.8 |  | 
9 | CC(C)(C)OC(=O)N[C@@H](Cc1c[nH]c2ccccc12)C(=O)N[C@@H](Cc1ccc2ccccc2c1)C(=O)N[C@@H](CC(=O)O)C(=O)NCCc1ccc([N+](=O)[O-])cc1 [Example 30, N-t-Butyloxycarbonyl-L-tryptophyl-L-3-(2-naphthyl)alanyl-L-aspartyl-4-nitrophenethylamide] | 6.6 | 5.7 |  | 
10 | Cc1cccc(CCNC(=O)[C@H](CC(=O)O)NC(=O)[C@H](Cc2ccc3ccccc3c2)NC(=O)[C@H](Cc2c[nH]c3ccccc23)NC(=O)OC(C)(C)C)c1 [Example 39, N-t-Butyloxycarbonyl-L-tryptophyl-L-3-(2-naphthyl)alanyl-L-aspartyl-3-methylphenethylamide] | 6.7 | 5.4 |  | 
11 | COc1ccc(CCNC(=O)[C@H](CC(=O)O)NC(=O)[C@H](Cc2ccc3ccccc3c2)N(C)C(=O)[C@H](Cc2c[nH]c3ccccc23)NC(=O)OC(C)(C)C)cc1 [Example 59, N-t-Butyloxycarbonyl-L-tryptophyl-N-methyl-L-3-(2-naphthyl)alanyl-L-aspartyl-4-methoxyphenethylamide] | 6.7 |  |  | pKB mouse stomach [3]: 5.3; Acid seretion at 10^-5 M test compound, relative to pentagastrin (%) [3]: 20%
12 | CC(C)(C)OC(=O)N[C@@H](Cc1cn(C=O)c2ccccc12)C(=O)N[C@@H](Cc1ccc2ccccc2c1)C(=O)N[C@@H](CC(=O)O)C(=O)N[C@@H](Cc1ccccc1)C(N)=O [Example 60, N-t-Butyloxycarbonyl-L-N^in-formyltryptophyl-L-3-(2-naphthyl)alanyl-L-aspartyl-L-phenylalaninamide] (Boc-W(For)[2Nal]DF-NH2) | 6.4 |  |  | pKB mouse stomach [3]: 5.3; Acid seretion at 10^-5 M test compound, relative to pentagastrin (%) [3]: 20%
13 | N-t-Butyloxycarbonyl-L-tryptophyl-L-3-(2-naphthyl)alanyl-L-aspartyl]-3-azaspiro[5.4]decylamide [Example 62] |  | 5.6 |  | 
14 | N-t-benzyloxycarbonyl-β-alanyl-L-tryptophyl-L-3-(2-naphthyl)alanyl-L- aspartyl-L-phenylalaninamide [Example 23] | 5.9 |  |  | pKB mouse stomach [3]: 5.5; Acid seretion at 10^-5 M test compound, relative to pentagastrin (%) [3]: 40%
